Assays:
E6 and E7 genes of HPV = conditions: known from WO2005/063293, WO2009/020198, Yamamoto et al. 2014; cited from earlier work
BCBL-1 cells = experiment: Intraperitoneal administration to PEL xenograft mouse models; assay type: in vivo, mice (NOD/SCID mice); conditions: 300 mg/kg bw intraperitoneally three times a week, 45 days
Description: BCBL-1 cells were intraperitoneally inoculated into immunodeficient mice (NOD/SCID mice) so that PEL xenograft models were produced. PEL refers to “primary effusion lymphoma”, as described above. The mice were divided into a compound A administered group and a control group. […] To the control group, PBS was administered intraperitoneally three times a week instead of the compound A. Exemplary results thereof are shown in FIG. 5.

KSHV [1] = experiment: Suppression of viral replication: KSHV copy number by real-time PCR; assay type: cell-based; conditions: BCBL-1 cells undergoing lytic induction, 96 hours, compound increased to 5 μM and to 10 μM
Description: Effects of the compound A on the KSHV copy number were analyzed by real-time PCR.
The compound A was added to the BCBL-1 cells undergoing lytic induction and cultured for 96 hours; then, DNA samples were collected and analyzed by real-time PCR.

lytic genes = experiment: Suppression of lytic induction in KSHV+ PEL cells (RT-PCR and Western blotting); assay type: cell-based; conditions: BC-3 cells and BCBL-1 cells undergoing lytic induction, 48 hours
From the text: Both of the BC-3 cells and the BCBL-1 cells are cell lines of KSHV^+ PEL cells. Regarding the BC-3 cells, it is known that TPA (12-O-tetradecanoylphorbol-13-acetate) and SB (sodium butyrate) cause cytokine stimulation, which results in the lytic induction. Further, regarding the BCBL-1 cells, it is known that VPA (valproic acid) causes cytokine stimulation, which results in the lytic induction.
Such cytokine stimulation was given to the BC-3 cells and the BCBL-1 cells, and the cells were cultured for 24 hours or 48 hours. Then, RNA of the same was collected, and was subjected to RT-PCR.
Effects of the compound A (the compound A produced in Production Example 1, also described as “Cp. A”) were confirmed by using the same BC-3 cells and BCBL-1 cells as those in Reference Example 1.
The compound A was added to the BC-3 cells and the BCBL-1 cells undergoing lytic induction and cultured for 48 hours; then, the cultured cells were analyzed by RT-PCR and Western blotting.

KSHV [2] = experiment: Viruses in ascites and plasma of PEL xenograft mice; assay type: in vivo, mice (NOD/SCID mice); conditions: 300 mg/kg bw intraperitoneally three times a week, 45 days
Description: BCBL-1 cells were intraperitoneally inoculated into immunodeficient mice (NOD/SCID mice) so that PEL xenograft models were produced. PEL refers to “primary effusion lymphoma”, as described above.
The mice were divided into a compound A administered group and a control group. […] To the control group, PBS was administered intraperitoneally three times a week instead of the compound A. Exemplary results thereof are shown in FIG. 5.
Viruses in ascites and plasma of the above-described mice were detected.

## Fc1ccc(N2CCCCC2)c(NC(=S)c2ccncc2)c1 [compound A, N-[5-fluoro-2-(1-piperidinyl)phenyl]-4-pyridinethioamide]
E6 and E7 genes of HPV
  expression of the E6 and E7 genes of HPV: suppress
  p53 gene stabilization: stabilize
BCBL-1 cells; vs control group (PBS)
  amount of ascites: significantly less
BCBL-1 cells; vs control group, data not shown
  enlarged spleen: particularly suppressed
KSHV [1]
  virus copy number (real-time PCR): decreased
Lytic genes
  expression of the lytic genes at protein level (Western blotting): suppressed
Lytic genes; compound increased to 5 μM and to 10 μM
  expression amount of lytic genes (RT-PCR): decreased
KSHV [2]; ascites
  amount of viruses in ascites: significantly decrease
KSHV [2]; plasma
  amount of viruses in plasma: significantly decrease
